In brackets after ≈: the same amount, converted by molar mass.
Assays:
[1] = cited from earlier work; for basic pKa: pH at which half of the basic sites are protonated
physchem = conditions: 20 °C, organic solvent or mixture, thermodynamic from solid
Procedure: The solubility of gefitinib in solvent mixtures with acetic acid were obtained by suspending 300 mg of crystalline gefitinib in 5 mL of solvent (methanol:water) containing 150 microliters of acetic acid at 20° C. (3.9 eq of acetic acid). […] The solubility in 100% methanol with acetic acid was determined after separating undissolved solids by centrifugation of a 1 mL aliquot at 10′000 RCF for 3 min after 1 hour of stirring. The supernatant was then analyzed for gefitinib concentration by HPLC.

[2] = Gefitinib solubility in methanol and methanol:water mixtures without acetic acid (HPLC); type: physicochemical; conditions: thermodynamic from solid, 24 hour stirring
Procedure: Crystalline gefitinib was added in excess to methanol and methanol:water mixtures to form saturated solutions at 20° C. After 24 hour of stirring, 1 mL aliquots were centrifuged at 10′000 RCF for 3 min.

[3] = Solubility of dasatinib in methanol (saturated solution, TGA); type: physicochemical; conditions: organic solvent or mixture, thermodynamic from solid, 25° C., analyzed by TGA
Procedure: Dasatinib free base was recrystallized from methanol and dried. Crystalline dasatinib was added in excess to methanol to form a saturated solution at 25° C. The solution was analyzed by TGA and found to contain 3.1 mg/mL dasatinib.

Question: Which “basic pKa” value [1] does the source give for `CCC[C@H](NC(=O)[C@@H]1[C@H]2CCC[C@H]2CN1C(=O)[C@@H](NC(=O)[C@@H](NC(=O)c1cnccn1)C1CCCCC1)C(C)(C)C)C(=O)C(=O)NC1CC1` [VX-950, Telaprevir] here?
Answer: −0.69

Question: Which results are given for `COc1ccc(-n2nc(C(N)=O)c3c2C(=O)N(c2ccc(N4CCCCC4=O)cc2)CC3)cc1` [Apixaban, apixaban]?
Answer: acidic pKa ([1]; pH at which half of the acidic site is deprotonated): ca. 13; basic pKa [1]: < 2

Question: What does the source list for `COc1cc2ncnc(Nc3ccc(F)c(Cl)c3)c2cc1OCCCN1CCOCC1` [gefitinib]?
Answer: solubility at 1 h (physchem; methanol with acetic acid): 31000 µg/mL (≈ 69.4 mM); solubility (physchem; methanol:water 60:40 with acetic acid): > 60000 µg/mL; solubility (physchem; methanol:water 70:30 with acetic acid): > 60000 µg/mL; solubility (physchem; methanol:water 80:20 with acetic acid): > 60000 µg/mL; solubility (physchem; methanol:water 90:10 with acetic acid): > 60000 µg/mL; solubility (physchem; methanol:water mixtures with acetic acid): ≥ 60000 µg/mL; basic pKa [1]: 6.8; solubility at 24 h ([2]; methanol:water 60:40, organic solvent or mixture, Methanol:H2O 60:40, 20° C.): 2100 µg/mL (≈ 4.7 mM); solubility at 24 h ([2]; methanol:water 70:30, organic solvent or mixture, Methanol:H2O 70:30, 20° C.): 4000 µg/mL (≈ 8.95 mM); solubility at 24 h ([2]; methanol:water 80:20, organic solvent or mixture, Methanol:H2O 80:20, 20° C.): 6300 µg/mL (≈ 14.1 mM); solubility at 24 h ([2]; methanol:water 90:10, organic solvent or mixture, Methanol:H2O 90:10, 20° C.): 6000 µg/mL (≈ 13.4 mM); solubility at 24 h ([2]; organic solvent or mixture, Methanol:H2O 100:0, 20° C.): 5200 µg/mL (≈ 11.6 mM)

Question: Which results are given for `Cc1nc(Nc2ncc(C(=O)Nc3c(C)cccc3Cl)s2)cc(N2CCN(CCO)CC2)n1` [dasatinib]?
Answer: basic pKa [1]: 7.2; solubility [3]: 3100 µg/mL (≈ 6.35 mM)

Question: With `N#Cc1ccnc(N2C(=O)CC[C@H]2C(=O)N(c2cncc(F)c2)[C@H](C(=O)NC2CC(F)(F)C2)c2ccccc2Cl)c1` [Ivosidenib, ivosidenib] as the compound, how does the “basic pKa” value [1] read?
Answer: ca. 1.81
